#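 Results reflect a 48-hour exposure of cells in 96-well plates to compound at five concentrations. The concentration for 50% growth inhibition is given as GI50.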 Activity calls are given as the source filed them. Rule as the data show it: active = GI50 up to about 1.1 µM and inactive = higher.
# What was measured:
# Assay in all cases: DTP human tumour cell line panel, 48 h
# LOX IMVI = system: LOX IMVI
# SK-MEL-5 = system: SK-MEL-5
# RXF 393 = system: RXF 393
# SW-620 = system: SW-620
# SK-OV-3 = system: SK-OV-3
# NCI/ADR-RES = system: NCI/ADR-RES
# UACC-62 = system: UACC-62
# BT-549 = system: BT-549
# IGROV-1 = system: IGROV-1
# OVCAR-5 = system: OVCAR-5
# Malme-3M = system: Malme-3M
# OVCAR-8 = system: OVCAR-8
# HOP-92 = system: HOP-92
# NCI-H226 = system: NCI-H226
# OVCAR-4 = system: OVCAR-4
# COLO 205 = system: COLO 205
# NCI-H23 = system: NCI-H23
# A498 = system: A498
# Hs-578T = system: Hs-578T
SMILES,GI50 (LOX IMVI),GI50 (SK-MEL-5),GI50 (RXF 393),GI50 (SW-620),GI50 (SK-OV-3),GI50 (NCI/ADR-RES),GI50 (UACC-62),GI50 (BT-549),GI50 (IGROV-1),GI50 (OVCAR-5),GI50 (Malme-3M),GI50 (OVCAR-8),GI50 (HOP-92),GI50 (NCI-H226),GI50 (OVCAR-4),GI50 (COLO 205),GI50 (NCI-H23),GI50 (A498),GI50 (Hs-578T)
NC(=O)c1csc(-c2ccc(CO)o2)n1,> 100 µM (inactive),> 100 µM (inactive),> 100 µM (inactive),> 100 µM (inactive),> 100 µM (inactive),> 100 µM (inactive),> 100 µM (inactive),> 100 µM (inactive),> 100 µM (inactive),> 100 µM (inactive),> 100 µM (inactive),> 100 µM (inactive),> 100 µM (inactive),> 100 µM (inactive),> 100 µM (inactive),> 100 µM (inactive),> 100 µM (inactive),> 100 µM (inactive),–
O=C(C=P(c1ccccc1)(c1ccccc1)c1ccccc1)c1ccccc1-c1ccccc1C(=O)C=P(c1ccccc1)(c1ccccc1)c1ccccc1,0.018 µM (active),0.0111 µM (active),0.0208 µM (active),0.027 µM (active),0.0216 µM (active),0.373 µM (active),< 0.0163 µM (active),–,< 0.015 µM (active),0.0462 µM (active),< 0.01 µM (active),< 0.01 µM (active),0.0127 µM (active),0.0221 µM (active),0.029 µM (active),0.0103 µM (active),0.018 µM (active),0.0264 µM (active),0.0319 µM (active)
CCOc1ncn(-c2ccc(NC(=S)NC34CC5CC(CC(C5)C3)C4)cc2)n1,> 100 µM (inactive),58.5 µM (inactive),–,> 100 µM (inactive),33.2 µM (inactive),–,38 µM (inactive),> 100 µM (inactive),> 100 µM (inactive),> 100 µM (inactive),–,22.8 µM (inactive),25 µM (inactive),–,22.3 µM (inactive),> 100 µM (inactive),> 100 µM (inactive),–,–
O=C1c2cccc3cc([N+](=O)[O-])cc(c23)C(=O)N1c1ccc(OCCN2CCCC2)cc1,10.8 µM (inactive),13.9 µM (inactive),17.9 µM (inactive),17.2 µM (inactive),–,32.5 µM (inactive),–,–,12.3 µM (inactive),19.4 µM (inactive),15 µM (inactive),19.8 µM (inactive),24.3 µM (inactive),9.35 µM (inactive),28.1 µM (inactive),9.46 µM (inactive),17.6 µM (inactive),12.4 µM (inactive),24.9 µM (inactive)
COc1ccccc1/C=C\C(=O)C1COCN1 (stereo not given),4.83 µM (inactive),10.6 µM (inactive),21 µM (inactive),4.36 µM (inactive),10.2 µM (inactive),15.2 µM (inactive),14.5 µM (inactive),–,16.1 µM (inactive),24.7 µM (inactive),19.3 µM (inactive),14.5 µM (inactive),–,18.7 µM (inactive),16.3 µM (inactive),6.35 µM (inactive),> 100 µM (inactive),–,16.3 µM (inactive)
O=C(O)CC(NC(=O)/C(=C/c1ccccc1O)NC(=O)c1ccccc1)C(=O)O (stereo not given),> 100 µM (inactive),> 100 µM (inactive),–,> 100 µM (inactive),> 100 µM (inactive),> 100 µM (inactive),42.5 µM (inactive),57 µM (inactive),58.9 µM (inactive),> 100 µM (inactive),61.7 µM (inactive),> 100 µM (inactive),–,> 100 µM (inactive),> 100 µM (inactive),> 100 µM (inactive),> 100 µM (inactive),50.5 µM (inactive),–
O=C(OCC1CC(C2(O)CCCCC2)C(=O)O1)c1ccccc1 (stereo not given),> 100 µM (inactive),> 100 µM (inactive),> 100 µM (inactive),> 100 µM (inactive),> 100 µM (inactive),> 100 µM (inactive),> 100 µM (inactive),> 100 µM (inactive),> 100 µM (inactive),> 100 µM (inactive),> 100 µM (inactive),> 100 µM (inactive),5.5 µM (inactive),> 100 µM (inactive),> 100 µM (inactive),> 100 µM (inactive),> 100 µM (inactive),> 100 µM (inactive),–
CC(=O)c1c2c(cc3c1CC1(C3)Cc3cc4c(c(C(=O)O)c3C1)CCCC4)CCCC2.CC(N)c1ccccc1 (stereo not given),35.5 µM (inactive),22.9 µM (inactive),–,45.4 µM (inactive),39.5 µM (inactive),40.1 µM (inactive),30.7 µM (inactive),–,34.8 µM (inactive),28.5 µM (inactive),33.4 µM (inactive),28.2 µM (inactive),15.4 µM (inactive),–,37 µM (inactive),27.9 µM (inactive),42 µM (inactive),–,36.6 µM (inactive)
